Laboratory results from PMC11279404, “Discovery of 1H-benzo[d]imidazole-(halogenated)Benzylidenebenzohydrazide Hybrids as Potential Multi-Kinase Inhibitors” (Pharmaceuticals, 2024).

Columns and labels:
[1] = MTT in vitro cytotoxicity, normal WI-38; format: cell-based; settings: human, WI-38 normal lung fibroblast cells, normal cell line, mean ± SD of triplicate
HepG2 cells [2] = assay: Annexin-V/propidium iodide double staining apoptosis assay; format: cell-based, human; settings: HepG2 cells treated at IC50 concentration for 24 h
Description: To investigate the mode of cell death induced by the synthesized compound 6i, flow cytometry analysis was performed. […] Following the treatment, the cells were double-stained with Annexin V and propidium iodide (PI) to assess the levels of apoptosis and necrosis. The data presented in Table 4 reveal a significant decline in the percentage of viable cells in the compound 6i-treated group (63.93%) compared with the untreated control group (97.58%). […] Additionally, in the late stages of apoptosis, the percentage of apoptotic cells rose from 0.21% in the control group to 9.98% in the compound 6i-treated group. […] The apoptosis levels in the control HepG2 cell lines and the cells treated with compound 6i are shown in the graphical representation provided in Figure 3.
The apoptosis effect of compound 6i was studied using a previously reported method.

caspase-3 = assay: Apoptotic protein level by ELISA, caspase-3; format: cell-based, human; settings: HepG2 cells, ELISA; control 99.904 ± 3.88; mean ± SD of triplicate
Description: (§1) To further elucidate the mechanism by which compound 6i induces cell death, the expression levels of key apoptotic proteins were assessed in the HepG2 cell line. […] Specifically, the levels of the pro-apoptotic proteins caspase-3 and Bax were markedly higher in the compound 6i-treated group compared with the control. […] Additional studies are warranted to elucidate the detailed molecular mechanisms underlying the apoptosis-inducing effects of compound 6i and to assess its therapeutic potential in relevant in vivo models.
(§2) Apoptotic protein levels for compound 6i were determined using an ELISA technique for caspase-3, BAX, and Bcl-2, applying a previously reported method.

[3] = test system: HepG2 (hepatocellular carcinoma cell line); assay: MTT in vitro cytotoxicity, HepG2; format: cell-based, human
mTOR = mTOR (Homo sapiens, UniProt P42345); assay: In vitro enzyme inhibition, mTOR
CDK2 = CDK2 (Homo sapiens, UniProt P24941); assay: In vitro protein kinase inhibition, CDK2
HDAC1 = HDAC1 (Homo sapiens, UniProt Q13547); assay: In vitro enzyme inhibition, HDAC1; format: biochemical; settings: mean ± SD of triplicate; read-out: In Vitro Protein Kinase Inhibition IC50 HDAC1
Sequence of HDAC1 (Q13547 whole entry): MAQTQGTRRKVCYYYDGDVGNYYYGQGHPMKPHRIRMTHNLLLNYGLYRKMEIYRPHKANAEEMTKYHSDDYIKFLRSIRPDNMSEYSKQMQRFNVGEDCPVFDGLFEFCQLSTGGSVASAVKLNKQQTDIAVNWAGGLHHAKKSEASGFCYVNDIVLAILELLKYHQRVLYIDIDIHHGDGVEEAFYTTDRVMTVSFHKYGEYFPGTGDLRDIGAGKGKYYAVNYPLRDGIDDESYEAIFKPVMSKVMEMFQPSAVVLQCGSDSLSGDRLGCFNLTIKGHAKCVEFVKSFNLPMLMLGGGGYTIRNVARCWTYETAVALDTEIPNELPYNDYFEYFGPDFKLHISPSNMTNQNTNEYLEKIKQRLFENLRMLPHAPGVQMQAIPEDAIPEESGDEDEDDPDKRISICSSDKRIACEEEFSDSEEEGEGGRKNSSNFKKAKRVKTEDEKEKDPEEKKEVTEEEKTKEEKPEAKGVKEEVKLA

VEGFR2 = VEGFR2 (Homo sapiens, UniProt P35968); assay: In vitro protein kinase inhibition, VEGFR2; format: biochemical; settings: mean ± SD of triplicate
Sequence of VEGFR2 (P35968 20-1356): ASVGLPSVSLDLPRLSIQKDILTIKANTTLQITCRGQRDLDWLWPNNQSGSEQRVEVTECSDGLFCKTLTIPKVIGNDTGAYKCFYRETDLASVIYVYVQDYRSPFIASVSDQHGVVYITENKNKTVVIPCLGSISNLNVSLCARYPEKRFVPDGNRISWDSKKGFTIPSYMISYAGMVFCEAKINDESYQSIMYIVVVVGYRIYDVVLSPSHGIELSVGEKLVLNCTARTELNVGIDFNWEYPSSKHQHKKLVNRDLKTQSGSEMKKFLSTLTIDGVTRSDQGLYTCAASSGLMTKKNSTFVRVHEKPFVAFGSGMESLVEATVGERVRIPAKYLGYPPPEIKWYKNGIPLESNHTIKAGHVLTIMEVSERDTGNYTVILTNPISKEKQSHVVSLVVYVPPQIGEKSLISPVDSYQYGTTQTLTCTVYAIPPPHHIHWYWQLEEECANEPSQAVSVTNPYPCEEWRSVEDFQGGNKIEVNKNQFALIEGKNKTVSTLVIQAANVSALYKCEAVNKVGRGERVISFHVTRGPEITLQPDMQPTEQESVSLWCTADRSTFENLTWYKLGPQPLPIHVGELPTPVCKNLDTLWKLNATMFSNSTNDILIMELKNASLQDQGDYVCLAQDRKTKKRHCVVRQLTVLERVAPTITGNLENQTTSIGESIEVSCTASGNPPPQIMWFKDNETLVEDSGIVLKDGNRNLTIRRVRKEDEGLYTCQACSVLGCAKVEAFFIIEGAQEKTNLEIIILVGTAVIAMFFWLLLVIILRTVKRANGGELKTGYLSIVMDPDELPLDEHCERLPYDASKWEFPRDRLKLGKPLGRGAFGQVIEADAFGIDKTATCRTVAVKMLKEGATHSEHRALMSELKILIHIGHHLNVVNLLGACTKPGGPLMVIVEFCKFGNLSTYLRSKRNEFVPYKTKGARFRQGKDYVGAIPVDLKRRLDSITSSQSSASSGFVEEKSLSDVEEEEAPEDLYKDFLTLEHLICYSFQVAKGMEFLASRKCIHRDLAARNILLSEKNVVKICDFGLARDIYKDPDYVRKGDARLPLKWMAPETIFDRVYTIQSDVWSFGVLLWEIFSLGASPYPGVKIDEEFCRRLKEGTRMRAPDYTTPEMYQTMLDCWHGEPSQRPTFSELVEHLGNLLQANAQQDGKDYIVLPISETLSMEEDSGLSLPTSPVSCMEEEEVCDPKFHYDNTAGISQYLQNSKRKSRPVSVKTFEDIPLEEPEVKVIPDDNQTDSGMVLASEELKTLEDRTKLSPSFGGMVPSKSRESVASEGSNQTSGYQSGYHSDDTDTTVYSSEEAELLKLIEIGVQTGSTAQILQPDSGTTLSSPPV
Source text: […]. […] […].

Bax = assay: Apoptotic protein level by ELISA, Bax; format: cell-based, human; settings: HepG2 cells
Description: as §1, §2

Her2 = Her2 (Homo sapiens, UniProt P04626); assay: In vitro protein kinase inhibition, Her2
Sequence of Her2 (P04626 23-1255): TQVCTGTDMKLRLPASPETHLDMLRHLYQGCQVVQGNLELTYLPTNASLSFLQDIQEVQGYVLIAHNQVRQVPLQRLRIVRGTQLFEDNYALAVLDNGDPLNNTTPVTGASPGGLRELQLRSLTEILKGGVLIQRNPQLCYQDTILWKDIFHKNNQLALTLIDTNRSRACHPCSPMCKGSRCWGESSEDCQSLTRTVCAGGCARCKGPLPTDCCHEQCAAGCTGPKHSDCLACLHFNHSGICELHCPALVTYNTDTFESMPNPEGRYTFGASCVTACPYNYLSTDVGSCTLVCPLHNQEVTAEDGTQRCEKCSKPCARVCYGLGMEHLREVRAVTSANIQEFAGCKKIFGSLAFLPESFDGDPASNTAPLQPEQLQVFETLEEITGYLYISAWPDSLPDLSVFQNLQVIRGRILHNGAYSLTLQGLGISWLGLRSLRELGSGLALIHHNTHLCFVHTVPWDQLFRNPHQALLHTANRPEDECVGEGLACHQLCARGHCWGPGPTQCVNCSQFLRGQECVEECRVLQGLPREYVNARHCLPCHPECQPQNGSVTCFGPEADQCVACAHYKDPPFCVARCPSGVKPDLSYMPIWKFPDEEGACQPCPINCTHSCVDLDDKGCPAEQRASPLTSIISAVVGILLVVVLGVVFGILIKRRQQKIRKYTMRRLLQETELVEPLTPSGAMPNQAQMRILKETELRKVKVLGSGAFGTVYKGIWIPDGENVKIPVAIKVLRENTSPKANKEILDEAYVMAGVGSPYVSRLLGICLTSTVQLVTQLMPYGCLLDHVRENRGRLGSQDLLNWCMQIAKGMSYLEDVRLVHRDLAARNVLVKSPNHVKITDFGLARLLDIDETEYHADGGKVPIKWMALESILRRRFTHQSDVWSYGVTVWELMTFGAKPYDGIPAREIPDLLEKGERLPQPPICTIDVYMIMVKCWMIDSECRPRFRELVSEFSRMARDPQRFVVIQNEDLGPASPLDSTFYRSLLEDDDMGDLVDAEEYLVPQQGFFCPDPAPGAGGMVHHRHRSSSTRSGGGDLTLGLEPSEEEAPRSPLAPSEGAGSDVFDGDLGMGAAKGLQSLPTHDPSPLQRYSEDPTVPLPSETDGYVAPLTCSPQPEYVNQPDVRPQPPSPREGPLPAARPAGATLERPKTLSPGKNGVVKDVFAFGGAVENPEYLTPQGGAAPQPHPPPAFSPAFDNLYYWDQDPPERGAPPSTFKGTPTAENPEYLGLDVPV

[4] = test system: cancer cell lines (HCT-116, HepG2, MCF-7); assay: MTT in vitro cytotoxicity, summary across the cancer cell line panel; format: cell-based; settings: Homo sapiens; summary over HCT-116, HepG2, MCF-7; read-out: IC50 values across the tested cancer cell lines
Description: The cytotoxic activities of compounds 6a-l were assessed using a standard MTT method, which was performed across three different cancer cell line models, namely human colon cancer (HCT-116), hepatocellular carcinoma (HepG2), mammary gland cancer (MCF-7), and normal (WI-38) cell lines. […] […]. Substitution at the 4-position, as in the case of compounds 6d, 6g, and 6j, also seems beneficial, with fluoro (6j) showing the best results. […]. Overall, the cytotoxicity data provide valuable insights into the structure–activity relationships of the synthesized compounds and can guide further optimization efforts to develop potential anticancer agents with improved potency and selectivity.
. The SI values represent the ratio of the IC50 values for the normal WI-38 cell line compared with the respective cancer cell lines, with higher SI values indicating greater selectivity for the cancer cells over normal cells. […]. The cytotoxic potential of compounds 6a-l was evaluated against a panel of cancer cell lines, including HCT-116, HepG2, and MCF-7, as well as a normal cell line, WI-38, using the reported methodology. The cell lines utilized in this study were obtained from the American Type Culture Collection (ATCC) through the Holding Company for Biological Products and Vaccines (VACSERA) in Cairo, Egypt. These included: 1. A human colon cancer cell line (HCT-116); 2. Hepatocellular carcinoma (HepG2)—a liver cancer cell line; 3. Mammary gland breast cancer (MCF-7); and 4. A human lung fibroblast (WI-38)—a normal cell line.

AURKC = molecular target: T1, AURKC (Homo sapiens, UniProt Q9UQB9); assay: In vitro protein kinase inhibition, AURKC
T1 sequence (Q9UQB9 1-309): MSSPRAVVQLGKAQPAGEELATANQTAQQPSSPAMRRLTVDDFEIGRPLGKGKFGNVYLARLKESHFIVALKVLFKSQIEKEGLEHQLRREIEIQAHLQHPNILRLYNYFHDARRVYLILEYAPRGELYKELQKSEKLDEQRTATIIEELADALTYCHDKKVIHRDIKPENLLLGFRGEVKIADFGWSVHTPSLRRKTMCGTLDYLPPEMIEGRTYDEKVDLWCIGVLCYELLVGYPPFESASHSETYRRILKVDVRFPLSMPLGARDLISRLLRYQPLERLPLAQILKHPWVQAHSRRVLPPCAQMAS

[5] = test system: MCF-7 (mammary gland breast cancer cell line); assay: MTT in vitro cytotoxicity, MCF-7; format: cell-based, human
[6] = test system: HCT-116 (human colon cancer cell line); assay: MTT in vitro cytotoxicity, HCT-116; format: cell-based
Bcl-2 = assay: Apoptotic protein level by ELISA, Bcl-2; format: cell-based, human; settings: HepG2 cells
EGFR = EGFR (Homo sapiens, UniProt P00533); assay: In vitro protein kinase inhibition, EGFR
Sequence of EGFR (P00533 25-1210): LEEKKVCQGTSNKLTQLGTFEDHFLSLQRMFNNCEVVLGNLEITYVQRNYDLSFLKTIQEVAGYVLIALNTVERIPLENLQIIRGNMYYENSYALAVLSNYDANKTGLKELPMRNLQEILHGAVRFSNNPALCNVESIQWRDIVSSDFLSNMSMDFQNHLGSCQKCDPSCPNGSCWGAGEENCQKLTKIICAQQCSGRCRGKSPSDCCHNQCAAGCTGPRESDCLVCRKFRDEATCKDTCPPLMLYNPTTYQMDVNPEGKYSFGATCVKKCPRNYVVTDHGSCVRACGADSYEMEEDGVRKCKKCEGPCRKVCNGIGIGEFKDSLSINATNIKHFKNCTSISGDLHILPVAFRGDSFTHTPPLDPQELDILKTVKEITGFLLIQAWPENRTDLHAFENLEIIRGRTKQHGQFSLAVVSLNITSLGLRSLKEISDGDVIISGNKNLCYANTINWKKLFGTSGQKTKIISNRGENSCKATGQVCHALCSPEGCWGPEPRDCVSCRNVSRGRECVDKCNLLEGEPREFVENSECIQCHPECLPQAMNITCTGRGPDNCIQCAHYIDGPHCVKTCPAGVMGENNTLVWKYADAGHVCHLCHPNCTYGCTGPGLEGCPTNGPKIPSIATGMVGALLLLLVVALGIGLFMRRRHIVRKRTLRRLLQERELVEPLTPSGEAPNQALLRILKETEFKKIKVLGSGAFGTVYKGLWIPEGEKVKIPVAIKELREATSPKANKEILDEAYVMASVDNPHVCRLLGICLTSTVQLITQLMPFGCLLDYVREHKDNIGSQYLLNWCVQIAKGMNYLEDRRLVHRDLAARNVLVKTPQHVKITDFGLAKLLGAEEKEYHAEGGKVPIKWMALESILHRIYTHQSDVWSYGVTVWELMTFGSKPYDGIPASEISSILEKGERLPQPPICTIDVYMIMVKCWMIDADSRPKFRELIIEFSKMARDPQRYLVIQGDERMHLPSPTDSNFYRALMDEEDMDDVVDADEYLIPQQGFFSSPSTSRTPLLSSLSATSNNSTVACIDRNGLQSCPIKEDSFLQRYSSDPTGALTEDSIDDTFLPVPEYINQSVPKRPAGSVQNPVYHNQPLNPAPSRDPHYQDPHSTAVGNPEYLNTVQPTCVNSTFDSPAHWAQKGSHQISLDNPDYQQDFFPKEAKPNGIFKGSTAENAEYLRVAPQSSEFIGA

HepG2 cells [7] = assay: Cell cycle analysis (propidium iodide flow cytometry); format: cell-based, human
Source text: Following the treatment, the cells were stained with propidium iodide and analyzed using flow cytometry to determine the cell cycle phase distribution. […] The quantitative data further substantiated this observation. […] It led to a marked accumulation of cells in the G1 phase, accompanied by a concomitant reduction in the proportion of cells in the S and G2/M phases. The cell cycle arrest effect observed with compound 6i may be a key mechanistic aspect contributing to its anticancer potential. The observed cell cycle arrest at the G1 phase is a common mechanism of action for many anti-cancer agents, as it can prevent cell division and proliferation, ultimately leading to cell cycle arrest and potentially inducing apoptosis or other forms of cell death.
The cell cycle distribution index (CDI) is a metric that quantifies the rate of cell proliferation, calculated as CDI = (G2/M + S)/[…], where the values represent the percentages of cells in each phase. In this study, the CDI values for the control and compound 6i-treated HepG2 cells were 0.91 and 0.39, respectively. […] Compound 6i was further evaluated for apoptosis analysis in HepG2 cell lines.

- IC50 (mTOR): 0.152 ± 5e-06 µM
- IC50 (CDK2): 0.364 ± 1.1e-05 µM
- IC50 (HDAC1): 0.0966 ± 3e-06 µM
- IC50 (VEGFR2): 0.1722 ± 6e-06 µM
- IC50 (Her2): 0.0283 ± 1e-06 µM
- IC50 (AURKC): 0.0745 ± 3e-06 µM
- IC50 (EGFR): 0.0301 ± 3e-05 µM
Structure (SMILES): O=C(N/N=C/c1cccc(F)c1)c1ccc(NCc2nc3ccccc3[nH]2)cc1 [6i, (E)-4-(((1H-benzo[d]imidazol-2-yl)methyl)amino)-N′-(3-fluorobenzylidene)benzohydrazide]
- IC50 [1]: 56.5 ± 3 µM
- Apoptosis Late (HepG2 cells [2]; control 0.21): 9.98%
- Apoptosis Early (HepG2 cells [2]; control 0.61): 22.07%
- Necrosis (HepG2 cells [2]; control 1.6): 4.02%
- Alive Cell (%) (HepG2 cells [2]; control 97.58): 63.93%
- Protein Expression Caspase-3 (caspase-3): 388.497 ± 15.09 pg/mL
- IC50 ([3]; Homo sapiens, HepG2, MTT, mean ± SD of triplicate): 9.39 ± 0.8 µM
- SI (Selectivity Index) HepG2 ([3]; IC50 of WI-38 / IC50 of HepG2): 6.01
- Protein Expression Bax (Bax; ELISA, control 71.075 ± 2.762, mean ± SD of triplicate): 513.731 ± 19.96 pg/mL
- Protein Expression Bax (Folds) (Bax; relative to control (1)): 7.22 Folds
- IC50 [4]: 7.82 to 10.2 µM
- IC50 ([5]; Homo sapiens, MCF7, MTT, mean ± SD of triplicate): 11.6 ± 0.9 µM
- SI (Selectivity Index) MCF-7 ([5]; IC50 of WI-38 / IC50 of MCF-7): 4.85
- IC50 ([6]; Homo sapiens, HCT-116, MTT, mean ± SD of triplicate): 13.4 ± 1.2 µM
- SI (Selectivity Index) HCT-116 ([6]; IC50 of WI-38 / IC50 of HCT-116): 4.20
- Bcl-2 level, fold lower compared with the control (Bcl-2): 7.5 fold
- Protein Expression Bcl-2 (Bcl-2; ELISA, control 15.668 ± 0.53, mean ± SD of triplicate): 2.073 ± 0.07 pg/mL
- Protein Expression Bcl-2 (Folds) (Bcl-2; relative to control (1)): 0.132 Folds
- Cell Cycle Distribution Index (CDI) (HepG2 cells [7]; CDI = (G2/M + S)/(G0-G1), HepG2, IC50 concentration, 24 h, control 0.91): 0.39
- DNA Content (%) %G2/M (HepG2 cells [7]; HepG2 cells treated at IC50 concentration for 24 h, control 12.84): 2.68%
- DNA Content (%) %S (HepG2 cells [7]; HepG2 cells treated at IC50 concentration for 24 h, control 34.77): 25.19%
- DNA Content (%) %G0-G1 (HepG2 cells [7]; HepG2 cells treated at IC50 concentration for 24 h, control 52.39): 72.13%
